A short description of test [1]: Induction of autophagic flux in human HeLa cells overexpressing EGFP-LC3 assessed as fold increase in GFP-tagged LC3-II protein expression at 10 uM incubated for 24 hrs by Western blotting analysis (reference value: 1). In kind it is functional. (In general: Immunoblotting shows a protein as a band on a membrane.)
Test [2] has as its system HeLa. The test can be described thus: Antiproliferative activity against human HeLa cells assessed as inhibition of cell growth incubated for 72 hrs by MTT assay. Format: functional, cell-based. In general terms: Tetrazolium assays rely on reduction of a dye to a coloured formazan, in cell work by metabolically active cells.
Test [3] can be described thus: Induction of autophagic flux in human HeLa cells overexpressing EGFP-LC3 assessed as fold increase in GFP-tagged LC3-II protein expression at 3 uM incubated for 24 hrs by Western blotting analysis (reference value: 1). In kind it is functional.
The nature of test [4]: Induction of autophagic flux in human HeLa cells overexpressing EGFP-LC3 assessed as fold increase in GFP-tagged LC3-II protein expression at 1 uM incubated for 24 hrs by Western blotting analysis (reference value: 1). In kind it is functional.
Test [5] deals with Lysosomal membrane. The test can be described thus: Induction of lysosomal membrane permeabilization in human HeLa cells assessed as increase fluorescence intensity at 10 uM incubated for 24 hrs in presence of bafilomycin A1 by LysoTracker Red DND-99 dye based confocal laser microscopic analysis. Format: subcellular.
Test [6] has as its system HT-1080. Put plainly: Induction of autophagic flux in human HT-1080 cells assessed as increase in LC3-II protein expression at 10 uM incubated for 24 hrs by Western blotting analysis. In kind it is functional, cell-based.
In test [7] the test system is HT-1080. The test can be described thus: Antiproliferative activity against human HT-1080 cells assessed as inhibition of cell growth incubated for 72 hrs by MTT assay. In kind it is functional, cell-based.
The test system of test [8] is Lysosomal membrane. The test can be described thus: Disruption of lysosomal membrane in human HT-1080 cells assessed as downregulation of cathepsin B expression incubated for 24 hrs by Western blotting analysis. In kind it is subcellular.
Test [9] relates to HeLa. The test can be described thus: Induction of autophagy in human HeLa cells overexpressing EGFP-LC3 assessed as increase in LC3-II puncta formation at 10 uM incubated for 24 hrs in presence of chloroquine by Hoechst staining based immunofluorescence analysis. Format: functional, cell-based.
The subject of test [10] is Lysosomal membrane. Put plainly: Induction of lysosomal membrane permeabilization in human HeLa cells assessed as increase fluorescence intensity at 10 uM incubated for 24 hrs in presence of chloroquine by LysoTracker Red DND-99 dye based confocal laser microscopic analysis. In kind it is subcellular.
Test [11] has as its system Lysosomal membrane. Put plainly: Disruption of lysosomal membrane in human HT-1080 cells assessed as downregulation of cathepsin B expression at 20 uM by Western blotting analysis. In kind it is subcellular.
Test [12] deals with HeLa. Put plainly: Induction of autophagy in human HeLa cells overexpressing EGFP-LC3 assessed as increase in LC3-II puncta formation at 10 uM incubated for 24 hrs in presence of rapamycin by Hoechst staining based immunofluorescence analysis. In kind it is functional, cell-based.
In test [13] the test system is Lysosomal membrane. The test can be described thus: Disruption of lysosomal membrane in human HT-1080 cells assessed as downregulation of cathepsin B expression at 5 uM incubated for 12 hrs by Western blotting analysis. In kind it is subcellular.
Test [14] deals with HeLa. The test can be described thus: Induction of autophagic flux in human HeLa cells overexpressing EGFP-LC3 assessed as increase in GFP-tagged LC3-II protein expression at 10 uM incubated for 24 hrs by Western blotting analysis. In kind it is functional, cell-based.
Test [15] concerns Lysosomal membrane. The test can be described thus: Disruption of lysosomal membrane in human HT-1080 cells assessed as downregulation of cathepsin B expression at 20 uM incubated for 12 hrs by Western blotting analysis. In kind it is subcellular.

Active and inactive are the calls of the source. The calls are words filed in the database; no cut-off is given here.

The results in this text go back to ChEMBL document CHEMBL6092165, “Discovery of sp3-rich diazatricycloundecanes as lysosomotropic autophagy inhibitors” (Eur J Med Chem, 2024).

In general, IC50 refers to the concentration that inhibits the measured activity by half. `CC(C)CNC(=O)C[C@H]1CN2C3CC(OC(=O)Cc4ccccc4)C1C2CN(CC(C)C)C3` (some centres not stated): in [1], the “fold change (FC)” value worked out at 1.3. In test [2], the 50% inhibitory concentration (IC50) is greater than 100 µM.
Taken in the same sequence, the figures for `CC(C)CNC(=O)C[C@H]1CN2C3CC(OC(=O)Cc4ccccc4)C1C2CN(Cc1ccccc1)C3` (some centres not stated) were 1.6 and 47.9 µM.
Taken in the same sequence, the figures for `CCCCCCNC(=O)/C=C1/CN2C3CC(OC(=O)C(C)C)C1C2CN(C(=O)c1ccccc1)C3` (configuration not stated) were 1.3 and greater than 100 µM.
Taken in the same sequence, the figures for `CCCCC(=O)OC1CC2CN(Cc3ccccc3)CC3C1[C@@H](CC(=O)NCc1ccccc1)CN23` (some centres not stated) were 5.4 and 6.7 µM.
Regarding `CC(C)CCC(=O)OC1CC2CN(Cc3ccccc3)CC3C1[C@@H](CC(=O)NCc1ccccc1)CN23` (some centres not stated), in test [1], the “fold change (FC)” value is 3.7. Further, in [2], the IC50 is 6.2 µM.
The corresponding values for `CC(C)CNC(=O)C[C@H]1CN2C3CC(OC(=O)CC(C)C)C1C2CN(Cc1ccccc1)C3` (some centres not stated) are 1.7 and 15.7 µM.
Regarding `CC(C)C(=O)OC1CC2CN(Cc3ccccc3)CC3C1[C@@H](CC(=O)NCC1CCCCC1)CN23` (some centres not stated), the “fold change (FC)” value in test [3] is recorded as 2.1; in test [1], 2.4; in test [4] it was 2. Moreover, the IC50 in [2] was found to be 15.5 µM.
Regarding `O=C(C[C@H]1CN2C3CC(OC(=O)C4CCCCC4)C1C2CN(Cc1ccccc1)C3)NCc1ccccc1` (some centres not stated), in [1], the “fold change (FC)” value is given as 3.7. Moreover, the IC50 in test [2] was found to be 5.2 µM.
For the molecule `CC(C)C(=O)OC1CC2CN(CC3CCCCC3)CC3C1[C@@H](CC(=O)NCC1CCCCC1)CN23` (some centres not stated), the “fold change (FC)” value turned out to be 3.7 in test [3], 2.9 in test [1] and 1.4 in test [4]. Besides, the IC50 in test [2] stood at 6 µM.
For `CC(C)CC(=O)OC1CC2CN(CC(C)C)CC3C1[C@@H](CC(=O)NCc1ccccc1)CN23` (some centres not stated), the “fold change (FC)” value in test [1] turned out to be 2.5. Besides, the half-inhibitory concentration (IC50) in [2] worked out at 34.2 µM.
On to `CCCCCCNC(=O)C[C@H]1CN2C3CC(OC(=O)C(C)C)C1C2CN(Cc1ccccc1)C3` (some centres not stated), for which, in [5], the outcome was inactive. For the same molecule, the “fold change (FC)” value in test [3] is listed as 2.6; in [1], 2.4; in [4], 1.3. The outcome in test [6] and in test [7] was Active. In addition, the Activity entry in test [8] is “Dose-dependent-effect”; in test [9] it was “Not active; Compared To Compound Alone Or Chloroquine Alone Treatment; Mechanism Of Action Similar To Chloroquine”; in test [10], “Active; Compound Observed To Enlarge Lysosome And Increase Lysosomal Ph Similar To Chloroquine”; in [11], “Time-dependent-effect”; in [12], “Active; Compared To Compound Alone Or Rapamycin Alone Treatment”. For the same molecule, in test [2], the IC50 worked out at 10.1 µM.
For the molecule `CCCCCCCCCCCCCCCC(=O)OC1CC2CN(Cc3ccccc3)CC3C1[C@@H](CC(=O)NCc1ccccc1)CN23` (some centres not stated), in test [1], the “fold change (FC)” value is listed as 1.1. Moreover, in test [2], the IC50 turned out to be 5.5 µM.
As to `CC(C)CC(=O)OC1CC2CN(Cc3ccccc3)CC3C1[C@@H](CC(=O)NCc1ccccc1)CN23` (some centres not stated), in test [1], the “fold change (FC)” value came to 3. In addition, the IC50 in test [2] was 10 µM.
Taken in the same sequence, the figures for `CC(C)CN1CC2CC(OC(=O)Cc3ccccc3)C3C(C1)N2C[C@@H]3CC(=O)NCc1ccccc1` (some centres not stated) were 1.8 and 94.2 µM.
In the case of `CO/C1=C\C(C)=C\[C@@H](C)[C@@H](O)[C@@H](C)C/C(C)=C/C=C/[C@H](OC)[C@@H]([C@@H](C)[C@@H](O)[C@H](C)[C@@]2(O)C[C@@H](O)[C@H](C)[C@@H](C(C)C)O2)OC1=O`, the result in test [13] was Active.
As to `O=C(C[C@H]1CN2C3CC(OC(=O)Cc4ccccc4)C1C2CN(Cc1ccccc1)C3)NCc1ccccc1` (some centres not stated), the “fold change (FC)” value in test [1] amounted to 2. The IC50 in test [2] was found to be 14.8 µM.
Taken in the same sequence, the figures for `CC(=O)OC1CC2CN(Cc3ccccc3)CC3C1[C@@H](CC(=O)NCc1ccccc1)CN23` (some centres not stated) were 3.5 and 78.4 µM.
As for `O=C(C[C@H]1CN2C3CC(=O)C1C2CN(Cc1ccccc1)C3)NCc1ccccc1` (some centres not stated), the result in [14] was inactive. Further, the IC50 in test [2] is greater than 100 µM.
As for `CC(C)CNC(=O)C[C@H]1CN2C3CC(OC(=O)CC(C)C)C1C2CN(CC(C)C)C3` (some centres not stated), in test [1], the “fold change (FC)” value is recorded as 1.2. In addition, in [2], the IC50 is greater than 100 µM.
For the molecule `O=C(C[C@H]1CN2C3CC(O)C1C2CN(Cc1ccccc1)C3)NCc1ccccc1` (some centres not stated), the result in test [14] was inactive. In [2], the IC50 was greater than 100 µM.
On to `O=C(C[C@H]1CN2C3CC(OC(=O)C4CCCCCC4)C1C2CN(Cc1ccccc1)C3)NCc1ccccc1` (some centres not stated), for which the “fold change (FC)” value in test [1] is reported as 2.2. Besides, the IC50 in [2] amounted to 5.1 µM.
Taken in the same sequence, the figures for `CC(C)C(=O)OC1CC2CN(Cc3ccccc3)CC3C1[C@@H](CC(=O)NCc1ccccc1)CN23` (some centres not stated) were 1.9 and 19.3 µM.
Taken in the same sequence, the figures for `CC(C)NC(=O)C[C@H]1CN2C3CC(OC(=O)C(C)C)C1C2CN(Cc1ccccc1)C3` (some centres not stated) were 1.8 and greater than 100 µM.
Take `CCOC(=O)C[C@H]1CN2C3CNCC2C1C(=O)C3` (some centres not stated): the result in [14] was inactive. The IC50 in test [2] is greater than 100 µM.
As for `CCCCCCNC(=O)/C=C1/CN2C3CC(OC(=O)C(C)C)C1C2CN(C)C3` (configuration not stated), the “fold change (FC)” value in [1] was 2.1. Besides, in test [2], the IC50 is greater than 100 µM.
Taken in the same sequence, the figures for `O=C(C[C@H]1CN2C3CC(OC(=O)C4CC4)C1C2CN(Cc1ccccc1)C3)NCc1ccccc1` (some centres not stated) were 5.7 and 18 µM.
Taken in the same sequence, the figures for `C#CCCCC(=O)OC1CC2CN(Cc3ccccc3)CC3C1[C@@H](CC(=O)NCc1ccccc1)CN23` (some centres not stated) were 4.3 and 15.7 µM.
Take `CCCCCCNC(=O)/C=C1/CN2C3CNCC2C1C(OC(=O)C(C)C)C3` (configuration not stated): the “fold change (FC)” value in test [1] was 1.3. For the same molecule, the IC50 in test [2] is greater than 100 µM.
Take `CCCCCCNC(=O)/C=C1/CN2C3CC(OC(=O)C(C)C)C1C2CN(C(=O)OCc1ccccc1)C3` (configuration not stated): the “fold change (FC)” value in test [1] amounted to 1.3. In addition, in [2], the IC50 came out at 23.1 µM.
In the case of `CCOC(=O)C[C@H]1CN2C3CC(=O)C1C2CN(Cc1ccccc1)C3` (some centres not stated), the result in test [14] was inactive. For the same molecule, the IC50 in test [2] is greater than 100 µM.
Regarding `CCN(CC)CCCC(C)Nc1ccnc2cc(Cl)ccc12` (configuration not stated) [CHLOROQUINE], in [15], the result was Active. Further, the “fold change (FC)” value in [1] stood at 2. The IC50 in [2] turned out to be 43.1 µM.
On to `CC(C)(C)C(=O)OC1CC2CN(Cc3ccccc3)CC3C1[C@@H](CC(=O)NCc1ccccc1)CN23` (some centres not stated), for which, in test [1], the “fold change (FC)” value was 3.8. For the same molecule, the IC50 in [2] is 5.6 µM.
Taken in the same sequence, the figures for `CNC(=O)C[C@H]1CN2C3CC(OC(=O)C(C)C)C1C2CN(Cc1ccccc1)C3` (some centres not stated) were 1.9 and greater than 100 µM.
The corresponding values for `CCCCCCNC(=O)/C=C1/CN2C3CC(OC(=O)C(C)C)C1C2CN(Cc1ccccc1)C3` (configuration not stated) are 3 and 12.5 µM.
